Source: a melting point compilation (Tetko et al.; mined from patent text by program, amines drawn as free bases though some values may be those of a salt)

| SMILES | melting point [°C] |
| --- | --- |
| CN1C(=O)C(Br)=C(c2cn(S(=O)(=O)c3ccccc3)c3ncccc23)C1=O | 198 |
| CCn1nc(C)c2c(Cl)cc(-c3ccccc3)nc21 | 101 to 103 |
| CCN1c2ncccc2C(=O)Nc2c(C)cc(N3CCC(O)C3)nc21 (stereo not given) | 131 to 134 |
| O=C(NN1CC=CCC1)Oc1ccccc1 | 124 to 126 |
| COc1ccc(-c2ccc3cnc(Nc4ccc(C5CCN(CC(N)=O)CC5)cc4)nn23)cn1 | 217 |
| CC(=O)C[C@@H]1c2cc(C#N)ccc2OC(C)(C)[C@H]1O (relative stereo) | 114 to 115 |
| COc1ccc(/C=C/C(=O)c2ccc(OCc3ccccc3)cc2OCc2ccccc2)c(OC)c1C | 125 |
| O=C(O)c1ccc(C=NS(=O)(=O)c2ccc(Cl)cc2)cc1 | > 245 |
| N#CCOc1ccc2cc(CNC(=O)c3cc4ccccc4o3)ccc2c1 | 138 to 139 |
| CCCCc1nn(-c2ccc(C(F)(F)F)cn2)cc1CCCO | 93 to 94 |
| Cc1cc(C2=NN(C(=S)NN)[C@H](C)Cc3cc4c(cc32)OCO4)ccc1[N+](=O)[O-] | 109 to 115 |
| Cc1cc(C2(c3cccc(-c4cncnc4)c3)N=C(N)N(C)C2=O)ccc1O[C@H](C)c1ccccc1 (stereo not given in full) | 112 to 114 |
| CCCc1c(OCC(O)COc2cccc(N)c2)ccc(C(C)=O)c1O (stereo not given) | 85 to 89 |
| Clc1ccccc1-c1ccc(-c2ccc(C3=CC=CNC3)cc2)n1CNc1ccccn1 | 163 to 166 |
| COc1cc2c(=O)c3c(Cl)ccc([N+](=O)[O-])c3[nH]c2cc1Cl | 284 to 285 |
| COc1ccc(NC(=O)OCC2(COC(=O)Nc3ccc(OC)cc3)CSc3ccccc3C2=O)cc1 | 58 to 63 |
| O=C(Cc1ccccc1)NC1CN(OC(=O)c2ccccc2)C1=O (stereo not given) | 128 to 130 |
| CC=Cc1nc2cc3c(cc2[nH]1)NC(=O)C3(C)C | 252 to 254 |
| OCC1(CO)COCCNCCOCCCOCCNCCO1 | 137 to 140 |
| COc1ccc(Nc2nc(NCCNC(=O)OC(C)(C)C)nc(NC3CCCCCC3)n2)cc1Cl | 94 |
| CCCCCCCCc1ccc(N(c2ccc(CCCCCCCC)cc2)C2(c3ccc(N(C)C)cc3C)OC(=O)c3ccccc32)cc1 (stereo not given) | 172 to 174 |
| CC(=O)n1cc(C#N)c(-c2ccccc2C(F)(F)F)c1 | 67 to 69 |
| O=C1C(=Cc2cccs2)CCc2cc(OCCc3c[nH]cn3)ccc21 | 60 to 63 |
| CCOC(=O)c1ccc(C(NCC(=O)Nc2c(C(C)C)cccc2C(C)C)c2ccccc2)cc1 (stereo not given) | 139 to 140 |
| Cc1ccc(-c2cc(Cl)c3cc(Cl)ccc3n2)cc1 | 123 to 125 |

| SMILES | melting point [°C] |
| --- | --- |
| COc1cc(OC)c2c(=O)[nH]c(-c3ccc4[nH]c(CCN5CCCC5)cc4c3)nc2c1 | 215 to 217 |
| Cc1ccc(C)c(-c2cccc(C=CC(=O)O)c2)c1 | 156 to 157 |
| O=c1[nH]nc(-c2ccc(NN=C(c3ccc(O)cc3)c3ccc(O)cc3O)cc2)c2ccccc12 | 150 to 160 |
| COC(=O)C(Oc1cc(OCc2ccsc2)ccc1C#N)c1ccccc1C (racemic) | 102 to 104 |
| CCCN1OCC(=Cc2cc(C(C)(C)C)c(O)c(C(C)(C)C)c2)C1=O | 194 to 196 |
| O=C1c2ccccc2C(=O)N1CCC=Cc1csc(-c2ccccn2)n1 | 139 to 141 |
| O=C(O)c1cc2cc(Cl)cc(Cl)c2nc1N[C@@H](Cc1ccccc1)C(=O)O | 218 to 223 |
| CCn1nnnc1Cc1ccc([N+](=O)[O-])cc1 | 104 to 105 |
| S=C(NCCc1ccccn1)NN=C(CCCCl)c1ccccc1 | 126 to 129 |
| CC(=O)Nc1ccc(S(=O)CC(=O)C23CC4CC(CC(C4)C2)C3)cc1 (stereo not given) | 174 to 176 |
| CCCCCC(=O)C=[PH2]c1ccccc1 | 73 to 74 |
| CN(C(=O)COc1cc(-c2ccccc2)nc2ccccc12)N1CCOCC1 | 189 |
| COC(=O)C=Cc1cc(C)n(CCNC(C)=O)c1C | 144 to 145 |
| Cc1ccc(CNCCOc2cccc3[nH]c(=S)[nH]c23)cc1 | > 250 |
| NCc1c([N+](=O)[O-])ccc(N2CCCC2)c1Cl | 71 to 73 |
| CCC(C)N(C)C(=O)c1cc2ccccc2c(-c2ccccc2F)n1 (stereo not given) | 85 |
| O=[N+]([O-])c1ccc(Sc2nccn2-c2ccccc2)cc1 | 123 to 125 |
| Cn1c2c(n(C)c1=O)CC(=NNC(=N)N)C=C2 | 238 |
| CCOC(=O)Nc1ccc2c(c1)C(c1ccccc1Cl)SCCC(=O)N2 (stereo not given) | 229 to 231 |
| Cc1cc(C(=O)CC(=O)C(F)(F)F)c(F)cc1Cl | 59 to 60 |
| C=CS(=O)(=O)CCC(F)(F)C(F)(F)C(F)(F)C(F)(F)C(F)(F)C(F)(F)F | 58 to 60 |
| CCCCC(CC)COc1ccc2c(Br)c3cc(OCC(CC)CCCC)ccc3c(Br)c2c1 (stereo not given) | 103 to 105 |
| Cc1ccc2c(c1)c1cc(-c3ccc(Cl)cc3Cl)c(=O)n(C)c1n2CCOC1CCCCO1 (stereo not given) | 161 |
| CCCCOc1c(NCc2ccc(C#N)cc2Cl)c(=O)c1=O | 148 to 149 |
| O=S(=O)(Oc1ccc(C(c2ccc(OS(=O)(=O)c3ccccc3)cc2)(C(F)(F)F)C(F)(F)F)cc1)c1ccccc1 | 133 to 134 |

| SMILES | melting point [°C] |
| --- | --- |
| COc1cc(OC)c2c(=O)[nH]c(-c3cccc(N4CCN(C(C)C)CC4)c3)nc2c1 | 251 to 253 |
| COCCCc1cc(N(C)Cc2ccc(-c3ccc(C(F)(F)F)cc3)nc2C)ccc1OCC(=O)O | 72 to 73 |
| CN1C(=O)N(CCN2C(=O)N(C)C(O)C2O)C(O)C1O (stereo not given) | 158 to 161 |
| COC1C(O)CCC(O)(CSC)C1C1(C)OC1CC=C(C)C (stereo not given) | 52 to 53 |
| CCCCC(CC)CNc1nc(N)nc(N)n1 (stereo not given) | 81 |
| S=C=NCc1ccc(Cl)nc1 | 22 |
| CCC(CO)Nc1nc(NCc2cccc(OC)c2O)c2ncn(C(C)C)c2n1 (racemic) | 120 to 122 |
| CC(=O)c1ccc(S(N)(=O)=O)c(Cl)c1 | 146 to 148 |
| COc1ccc(-c2nn(Cc3ccncc3)c(=O)cc2-c2ccncc2)cc1 | 193 to 194 |
| COC(=O)c1ccc(C(F)(F)F)nc1S(N)(=O)=O | 187 to 188 |
| Cc1nnc(C(C)C)n1C1CC2CCC(C1)N2CCC(NC(=O)C1CCC(F)(F)CC1)c1ccc(NC(=O)COCC(=O)NCCCCCCCN)cc1 (stereo not given) | 100 to 102 |
| COc1ccc(C2CNC(=O)C2)cc1Br (stereo not given) | 151 to 154 |
| Cc1ccc(-c2cc(Br)c3c(c2)CCC(=O)N3)c(C)n1 | 194 to 195 |
| CC(C)OC(=O)COc1ccc(NC(=O)NC(=O)c2ccc(C(N)=S)cc2)cc1 | 224 to 227 |
| CCCCCCCCCCCCc1cn(C(C(=O)Nc2c(OC)cc(OC)cc2OC)c2ccccc2)cn1 (stereo not given) | 95 to 102 |
| Cc1nc(-c2ccc(C#N)cc2)sc1C(=O)N(CCO)[C@H](C)[C@](O)(Cn1cncn1)c1ccc(F)cc1F | 113 to 119 |
| CN(C/C=C\COCC(=O)O)c1cnc(-c2ccccc2)c(-c2ccccc2)n1 | 128 to 130 |
| CC(C)(C)Nc1cc(N2CCCNCC2)nc(NC(C)(C)C)n1 | 127 to 132 |
| Cc1noc2ncnc(NCCC(C)C)c12 | 133 |
| CCCNC(=O)C(CCC(=O)NCCCOC(C)=O)NC(=O)OCc1ccccc1 (stereo not given) | 98 to 102 |
| CCCCCOC1CCC(=O)N1 (stereo not given) | 42 to 43 |
| CN1CCN(C2NC(=O)c3ccccc32)CC1 (stereo not given) | 168 to 170 |
| CON=C1CSc2ccccc2CN1 | 101 to 102 |
| O=C(Cc1ccccc1)N1CCN(Cc2n[nH]c3cc(F)ccc23)CC1 | 173 to 174 |
| O=c1cc(Nc2ccc3c(c2)CCC3)[nH]c(=S)[nH]1 | 269 to 272 |

| SMILES | melting point [°C] |
| --- | --- |
| CCCCc1ccc(NC2=NCCS2)cc1 | 73 to 75 |
| O=C(O)C1=Cc2cc(-c3ccc(Cl)cc3)ccc2OC1C(F)(F)F (stereo not given) | 212 to 213 |
| CC(C)[Si](OCCOc1cc(CO)ccc1Br)(C(C)C)C(C)C | 62.2 |
| CC(=O)Nc1cc(C)c(C)nc1C | 89 to 92 |
| CCCc1c(OCCCCCC(=O)c2cc(C)c(O)c(O)c2C)ccc(C(=O)O)c1O | 121 to 125 |
| CCOc1ccc(C=CC(=O)c2c(O)cc(OCC)cc2OCC)cc1 | 131 |
| O=C(O)c1ccc(S(=O)(=O)NCCSC2c3ccccc3COc3ccc(OCc4ccc5ccccc5n4)cc32)cc1 (stereo not given) | 113 to 115 |
| COc1cccc2c(=O)n3c(cc12)SCCC3 | 117 to 118 |
| Cc1ccc(Cl)cc1NC(=S)NCC(N)=O | 162 to 164 |
| COc1cc(C(=O)N2CCCC(CCN3CCC(C(=O)c4nc5ccccc5n4Cc4ccc(F)cc4)CC3)(c3ccc(Cl)c(Cl)c3)C2)cc(OC)c1OC (stereo not given) | 93 to 95 |
| O=CNNC(=S)Nc1ccccc1F | 148 to 149 |
| COc1ccc2c(c1)S(=O)(=O)C(C(=O)Nc1cccc(C(F)(F)F)c1)C(=O)N2C (stereo not given) | 165 to 168 |
| COc1ccc(-c2ncn(C)c2-c2ccc(OC)cc2)cc1 | 122 |
| COc1ccc(C(=O)N[C@@H](Cc2ccc(OC(=O)c3ccc(OC)cc3)cc2)C(=O)O)cc1 | 171 to 174 |
| CCOC(=O)C(=O)Nc1ccc2ccccc2c1[N+](=O)[O-] | 139 to 140 |
| O=c1[nH]ncc2[nH]c(-c3ccc(OC(F)F)c(OC4CC4)c3)c(COC3CCC3)c12 | 95 to 100 |
| CC1(C)Oc2ccc([N+](=O)[O-])cc2C(n2ccccc2=O)=C1NC(=O)C(F)(F)F | 189 |
| CN(O)C(=O)C(=Cc1ccc2ccccc2c1)c1ccc(F)cc1 | 132 to 134 |
| COc1cc(-c2ccn(C)n2)cc2oc(=O)c(C)c(C)c12 | 135 |
| CCCCc1oc2ccccc2c1C(=O)NCc1ccc2c(-c3ccc(OC)cc3)c(O)ccc2c1 | 118 to 122 |
| Nc1nc(=O)n([C@@H]2CC[C@H](CO)O2)cc1F | 147 to 149 |
| COC(=O)c1ccc(CC(C)NCC(O)c2cc(Cl)c(N)c(Cl)c2)cc1 (stereo not given) | 97 to 115 |
| Cc1ccc2c(c1)Cn1ccnc1N2 | 265 |
| Cc1ccn(-c2nc(C)c(C(=O)NCc3ccccc3)s2)c(=O)c1 | 145 to 147 |
| COCCOc1nc2cc(-c3ccc(OC)cc3)nnc2c2ccccc12 | 148 to 150 |
